Legend:
[1] = cited from earlier work
[2] = Biopharmaceutics Classification System class; cited from earlier work
[3] = Incorporation of therapeutic compound into glycerolipid formulations with digestion enhancers (visual; cooling and remelting); details: for behaviour on stepwise hard fat addition (visual): then GELUCIRE 43/01 up to 1,000 mg
[4] = Solubility of therapeutic compound in heated lipids in the absence of cholic acid (visual); details: 60° C., stirred at least 60 minutes; only MAISINE CC and MAISINE CC/GELUCIRE 43/01 in ratios of 2:1 to 1:2
Procedure: ® 43/01, was then added in a stepwise fashion of 6 g to this lipid mixture until the total amount reached 24 g. […]

[5] = Formulating procedure: dissolution and stable incorporation in glycerolipid admixture/matrix; type: physicochemical; details: as shown in Example 3
Procedure: As a first step, it is first determined whether a selected therapeutic compound can be formulated using 1) glycerolipids including at least one liquid fat (glycerolipid that is liquid at 18° C.) and at least one hard fat (glycerolipid that is solid at 18° C.) and 2) one or more digestion enhancers. In some embodiments, the one or more liquid and hard fats are first heated and the one or more digestion enhancers are solubilized in the glycerolipid admixture. Upon completion of solubility of the digestion enhancers, and if appropriate, the temperature of the admixture can be adjusted and a selected therapeutic compound is then dissolved in this heated admixture to incorporate the compound. […] In some embodiments, the one or more liquid fats are first heated and the one or more digestion enhancers are solubilized in the liquid fats. […] The initial heating step in all procedures is performed at a temperature sufficient to dissolve the one or more digestion enhancers and selected therapeutic compound and can be empirically determined based on the melting point of the selected components. […] Any subsequent adjustment to the heat when one or more liquid fats and/or one or more hart fats are being added to the admixture is performed at a temperature sufficient to melt the hard fats and can be empirically determined based on the melting point of the hard fat used in the formulation. […]

[6] = previous studies; cited from earlier work
[7] = Oleic acid miscibility / self-emulsification in dissolution media modelling ICH dissolution testing; type: physicochemical; details: 1 g (100% or 75%) in one liter PBS with […] curcumin, 37° C., 300 rpm 10 minutes, then 10 minutes without stirring
Procedure: To assess whether oleic acid could self-emulsify at the concentrations used in the disclosed pharmaceutical compositions, experiments was performed that were designed to model dissolution testing according to International Council for Harmonisation (ICH) guidelines. […] Miscibility experiments were performed using two concentrations of oleic acid nominally above the CMC concentration for this fatty acid. In one series of experiments, 1 g of 100% oleic acid was added to the dissolution media. The control compound was 1 g of 100% MAISINE™ CC. In a second series of experiments 1 g of 75% oleic acid (diluted with 250 mg of MAISINE™ CC) was added to the dissolution media. The control compound was 1 g of 75% MAISINE™ CC. The miscibility of oleic acid and MAISINE™ CC was assessed by observing the dissolution media for 10 minutes with constant stirring and then 10 minutes without stirring. Photographs were taken at time 0, 1, 2, 3, 4, 5 and 10 minutes during the stirring phase and 2, 4 and 10 minutes after stirring ceased.
Both oleic acid preparations quickly distributed throughout the PBS in small but clearly defined lipid droplets which were still observable after 10 minutes of stirring. On cessation of stirring, the lipid droplets either adhered to the stirrer or floated to the top of the PBS, with the bulk of the PBS clearing. […]

[8] = reported value; cited from earlier work

Row | SMILES | Log P [1] | other results
1 | C[C@]12CC[C@H](O)CC1=CC[C@@H]1[C@@H]2CC[C@]2(C)C(c3cccnc3)=CC[C@@H]12 [Abiraterone] | >1 | 
2 | CN(C)CCC=C1c2ccccc2CCc2ccccc21 [Amitriptyline] | >1 | BCS [2]: I
3 | CC(C)c1ccc2oc3nc(N)c(C(=O)O)cc3c(=O)c2c1 [Amlexanox] | >1 | 
4 | C[C@@H](O[C@H]1OCCN(Cc2n[nH]c(=O)[nH]2)[C@H]1c1ccc(F)cc1)c1cc(C(F)(F)F)cc(C(F)(F)F)c1 [Aprepitant] | >1 | incorporation into heated glycerolipid mixture (visual) ([3]; 50 mg with 40 mg cholic acid added to 500 mg MAISINE CC and 1,000 mg GELUCIRE 43/01 together, about 120° C. to about 160° C.): failed to incorporate; behaviour on stepwise hard fat addition (visual) ([3]; 50 mg with 40 mg cholic acid in 500 mg MAISINE CC, about 120° C. to about 160-170° C.): remained in solution; behaviour on stepwise hard fat addition (visual) ([3]; 60 mg dissolved in 500 mg MAISINE CC without cholic acid, about 120° C. to about 160° C.): precipitate
5 | CC(=O)OC[C@H]1O[C@@H]([S-])[C@H](OC(C)=O)[C@@H](OC(C)=O)[C@@H]1OC(C)=O.CCP(CC)CC.[Au+] [Auranofin] |  | solubility in heated lipid in the absence of cholic acid (visual) [4]: remained insoluble
6 | CC(C)(C)c1cc(NC(=O)Nc2ccc(Oc3ccnc4[nH]c(=O)cnc34)cc2F)n(-c2cccc(F)c2)n1 [CCT3833] | >1 | 
7 | COc1cc(/C=C/C(=O)CC(=O)/C=C/c2ccc(O)c(OC)c2)ccc1O [Curcumin] | >1 | solubility using a formulation disclosed herein [5]: soluble
8 | CCCCCCCC(=O)N[C@H](CN1CCCC1)[C@H](O)c1ccc2c(c1)OCCO2 [Eliglustat] | >1 | BCS [2]: I or III
9 | CC(C)OC(=O)C(C)(C)Oc1ccc(C(=O)c2ccc(Cl)cc2)cc1 [Fenofibrate] | >1 | 
10 | Cc1ccc(C)c(OCCCC(C)(C)C(=O)O)c1 [Gemfibrozil] | >1 | 
11 | COC(=O)Nc1nc2ccc(C(=O)c3ccccc3)cc2[nH]1 [Mebendazole] | >1 | 
12 | CN(C)C(=N)N=C(N)N [Metformin] |  | BCS [2]: I
13 | CO[C@@H]1[C@H](N(C)C(=O)c2ccccc2)C[C@H]2O[C@]1(C)n1c3ccccc3c3c4c(c5c6ccccc6n2c5c31)C(=O)NC4 [Midostaurin] | >1 | 
14 | O=C(O)c1cccnc1 [Niacin] | <1 | BCS [2]: I
15 | COC(=O)c1ccc2c(c1)NC(=O)/C2=C(\Nc1ccc(N(C)C(=O)CN2CCN(C)CC2)cc1)c1ccccc1 [Nintedanib] | >1 | BCS [2]: II or IV
16 | CO[C@@H]1[C@@H](OC(N)=O)[C@@H](O)[C@H](Oc2ccc3c(O)c(NC(=O)c4ccc(O)c(CC=C(C)C)c4)c(=O)oc3c2C)OC1(C)C [Novobiocin] | >1 | 
17 | O=C(c1cc(Cc2n[nH]c(=O)c3ccccc23)ccc1F)N1CCN(C(=O)C2CC2)CC1 [Olaparib] | >1 | appearance on remelting of the solid composition (visual) ([3]; MAISINE CC, fatty acid component, cholic acid and GELUCIRE 43/01, 130° C., cooled, remelted at 50° C.): no precipitate formation; behaviour on cooling and solidification (visual) ([3]; MAISINE CC, oleic acid and GELUCIRE 43/01 without cholic acid, 130° C., cooled to room temperature): precipitated out of solution
18 | COc1ccc2[nH]c([S+]([O-])Cc3ncc(C)c(OC)c3C)nc2c1 (centres unmarked) [Omeprazole] | >1 | 

Row | SMILES | Log P [1] | other results
19 | Cc1ccc(=O)n(-c2ccccc2)c1 [Pirfenidone] | >1 | BCS [2]: I
20 | Clc1ccc(CCCOCCCN2CCCCC2)cc1 [Pitolisant] | >1 | BCS [2]: I
21 | O=C(C1CCCCC1)N1CC(=O)N2CCc3ccccc3C2C1 (centres unmarked) [Praziquantel] | >1 | 
22 | CC(=O)[C@H]1CC[C@H]2[C@@H]3CCC4=CC(=O)CC[C@]4(C)[C@H]3CC[C@]12C [Progesterone] | >1 | 
23 | CC(C)NCC(O)COc1cccc2ccccc12 (centres unmarked) [Propranolol] |  | BCS [2]: I
24 | O=C(c1ccc(OCCN2CCCCC2)cc1)c1c(-c2ccc(O)cc2)sc2cc(O)ccc12 [Raloxifene] | >1 | 
25 | O=C(NC(Cc1cc(=O)[nH]c2ccccc12)C(=O)O)c1ccc(Cl)cc1 (centres unmarked) [Rebamipide] | >1 | 
26 | CC1=C(/C=C/C(C)=C/C=C/C(C)=C/C(=O)O)C(C)(C)CCC1 [Retinoic acid] | >1 | 
27 | C[C@H](O)[C@H](O)[C@H]1CNc2nc(N)[nH]c(=O)c2N1 [Sapropterin] | <1 | BCS [2]: I
28 | NCCc1c[nH]c2ccc(O)cc12 [Serotonin] | <1 | 
29 | N[C@@H](Cc1c[nH]c2ccccc12)C(=O)O [Tryptophan] | <1 | 
30 | C=C(C)[C@@H]1CCC(C)=C[C@H]1c1c(O)cc(CCCCC)cc1O [cannabidiol] |  | solubility in a glycerolipid admixture of MAISINE CC and GELUCIRE 43/01 [6]: soluble
31 | COc1ccc2cc([C@H](C)C(=O)O)ccc2c1 [naproxen sodium] |  | incorporation into heated glycerolipid mixture (visual) ([3]; 393 mg alone added to 500 mg MAISINE CC and 1,000 mg GELUCIRE 43/01, about 130° C.): failed to incorporate
32 | COC(=O)c1ccc2c(c1)NC(=O)/C2=C(\Nc1ccc(N(C)C(=O)CN2CCN(C)CC2)cc1)c1ccccc1 [nintedanib esylate] |  | incorporation into heated glycerolipid mixture (visual) ([3]; 40 mg in 1.0 g MAISINE CC with 1.5 g oleic acid and 100 or 150 mg sodium oleate or sodium stearate, about 130° C., no cholic acid or lecithin): failed to incorporate; incorporation into heated glycerolipid mixture (visual) ([3]; 40 mg in 1.0 g MAISINE CC with 1.5 g oleic acid, sodium oleate or sodium stearate, and 30 mg of cholic acid or 30 mg lecithin, about 130° C.): became soluble
33 | CCCCCCCC/C=C\CCCCCCCC(=O)O [oleic acid] |  | miscibility in the dissolution media [7]: not miscible; critical micellar concentration (CMC) [8]: 2.3 mM
34 | Clc1ccc(CCCOCCCN2CCCCC2)cc1 [pitolosant] |  | solubility in heated lipid in the absence of cholic acid (visual) [4]: remained insoluble
35 | CCCCCCCCCCCCCCCCCC(=O)[O-].[Na+] [sodium stearate] |  | critical micellar concentration (CMC) [8]: 0.071 mM

Source: patent US12226484B2, “Compositions having improved bioavailability of therapeutics” (TRx Biosciences Limited, priority 2021, dated 2025)
